The values below come from patent US10898504B2, “Substituted nucleoside analogues for use as PRMT5 inhibitors” (Janssen Pharmaceutica NV, priority 2016, dated 2021).

The target in experiment [1] is T1, PRMT5-MEP50 enzyme (Homo sapiens, UniProt O14744).
T1 construct: One virus expresses full length human PRMT5 with Flag-tag at N-terminus
Briefly: In vitro assay (Assay 1): PRMT5-MEP50 high throughput mass spectrometer assay, inhibition of SAH formation. In kind it is biochemical. The following applies: individual measurements shown, read-out: pIC50 Assay 1 (converted). The essentials: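 Flag-PRMT5/His-MEP50 full-length human complex (Sf9-expressed), 10 nM, with 1 μM SAM and 0.3 μM histone H2A in 20 mM Tris-HCl pH 8.5, 50 mM NaCl, 5 mM MgCl2, 1 mM DTT; 60 min at 30 °C, quenched with 1% formic acid. SAH quantified by RapidFire MS; IC50 from 11-point 1:2 series fitted to four-parameter Hill equation.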

The subject of experiment [2] is A549 cells. Briefly: PD assay (Assay 2): inhibition of nuclear symmetric Arginine dimethylation (SYM10 immunohistochemistry) in A549 cells. The following applies: Homo sapiens, A549, PD assay in A549 cells, individual measurements shown, read-out: pIC50 Assay 2 (converted). In kind it is cell-based. The essentials: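 A549 cells dosed with a nine-point series (0.2% DMSO) for 48 h at 37° C, then fixed and immunostained with SYM10 anti-symmetric-dimethylarginine antibody, plus Hoechst and CellMask counterstains for high-content imaging. Nuclear signal normalized between DMSO and 10 μM reference-compound controls to derive IC50/pIC50.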

Experiment [3] deals with PRMT5 (Homo sapiens, UniProt O14744). The following applies: Chan-Penebre et al., Nat Chem Biol 2015; cited from earlier work.
PRMT5, sequence (O14744 whole entry, species assumed): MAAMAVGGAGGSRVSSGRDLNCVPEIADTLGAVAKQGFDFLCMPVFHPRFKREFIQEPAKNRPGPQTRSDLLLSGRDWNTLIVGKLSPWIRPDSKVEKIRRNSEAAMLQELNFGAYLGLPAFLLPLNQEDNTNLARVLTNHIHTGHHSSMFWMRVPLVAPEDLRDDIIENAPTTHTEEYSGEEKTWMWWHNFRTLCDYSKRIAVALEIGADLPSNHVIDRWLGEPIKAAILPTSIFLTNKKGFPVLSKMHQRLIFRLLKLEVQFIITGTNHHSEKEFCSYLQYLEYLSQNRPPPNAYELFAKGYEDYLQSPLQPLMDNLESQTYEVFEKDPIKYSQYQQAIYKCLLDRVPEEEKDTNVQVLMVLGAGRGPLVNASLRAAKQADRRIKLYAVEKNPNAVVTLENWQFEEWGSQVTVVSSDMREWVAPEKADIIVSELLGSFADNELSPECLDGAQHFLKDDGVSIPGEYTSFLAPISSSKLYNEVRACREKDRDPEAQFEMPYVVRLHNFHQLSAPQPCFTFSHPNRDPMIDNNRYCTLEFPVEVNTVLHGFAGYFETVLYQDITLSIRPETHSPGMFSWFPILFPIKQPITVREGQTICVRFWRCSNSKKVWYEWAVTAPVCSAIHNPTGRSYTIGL
PRMT5, sequence (Q9BQA1 whole entry partner, species assumed): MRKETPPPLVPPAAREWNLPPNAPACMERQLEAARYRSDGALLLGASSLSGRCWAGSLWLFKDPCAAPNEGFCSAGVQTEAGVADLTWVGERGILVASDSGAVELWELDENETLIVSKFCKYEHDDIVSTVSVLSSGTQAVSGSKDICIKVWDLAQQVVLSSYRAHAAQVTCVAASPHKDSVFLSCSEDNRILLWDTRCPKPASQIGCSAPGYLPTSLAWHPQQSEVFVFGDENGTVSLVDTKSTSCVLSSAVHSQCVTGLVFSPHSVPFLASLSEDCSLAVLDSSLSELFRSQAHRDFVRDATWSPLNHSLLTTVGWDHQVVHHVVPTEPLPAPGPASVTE
The subject of experiment [4] is MCL xenograft models. The following applies: multiple MCL xenograft models; Chan-Penebre et al., Nat Chem Biol 2015; cited from earlier work.

Several values for one entry are separate records, joined by “and”; a condition that tells them apart may be missing. Equal values may be shown once. Bounds are passed on as bounds.

T1 sequence (O14744 whole entry): as the sequence (O14744 whole entry, species assumed) above
T1 sequence (Q9BQA1 whole entry partner): as the sequence (Q9BQA1 whole entry partner, species assumed) above

With `COCCN1CCC2(CCCN2C[C@H]2O[C@@H](n3ccc4c(N)ncnc43)[C@H](O)[C@@H]2O)CC1` [Compound 194], the figures for the IC50 in experiment [1] and in experiment [2] were 427 nM and about 5620 nM, respectively.

`CNC(=O)CCN1CCC2(CCCN2C[C@H]2O[C@@H](n3ccc4c(N)ncnc43)[C@H](O)[C@@H]2O)CC1` [Compound 195]: the figures for the IC50 in experiment [1] and in experiment [2] were 537 nM and over 10000 nM, respectively.

`Nc1ncnc2c1ccn2[C@@H]1O[C@H](CN2CCCC23CCN(CC(F)F)CC3)[C@@H](O)[C@H]1O` [Compound 196]: the figures for the IC50 in experiment [1] and in experiment [2] were 1150 nM and 3240 nM, respectively.

Turning to `CNC(=O)CN1CCC2(CCCN2C[C@H]2O[C@@H](n3ccc4c(N)ncnc43)[C@H](O)[C@@H]2O)CC1` [Compound 197], the IC50 in experiment [1] is 6460 nM; in experiment [2], over 10000 nM.

With `Nc1ncnc2c1ccn2[C@@H]1O[C@H](CN2CCCC23CCN(C2COC2)CC3)[C@@H](O)[C@H]1O` [Compound 198], the IC50 in experiment [1] is 437 nM; in experiment [2] it was about 1100 nM.

Turning to `Nc1ncnc2c1ccn2[C@@H]1O[C@H](CN2CCCC23CCN(Cc2cccnn2)CC3)[C@@H](O)[C@H]1O` [Compound 199], the IC50 is 891 nM in experiment [1] and 1860 nM in experiment [2].

`Nc1ncnc2c1ccn2[C@@H]1O[C@H](CN2CCCC23CCN(Cc2nccs2)CC3)[C@@H](O)[C@H]1O` [Compound 200]: the IC50 in experiment [1] is 4790 nM; in experiment [2], over 10000 nM.

In the case of `Nc1ncnc2c1ccn2[C@@H]1O[C@H](CN2CCCC23CCN(CC2OCCc4ccccc42)CC3)[C@@H](O)[C@H]1O` (stereo partly shown) [Compound 201], the results for the IC50 in experiment [1] and in experiment [2] were 457 nM and about 10200 nM, respectively.

For `Nc1ncnc2c1ccn2[C@@H]1O[C@H](CN2CCCC23CCN(CC(F)(F)F)CC3)[C@@H](O)[C@H]1O` [Compound 202], the IC50 in experiment [1] is 2000 nM; in experiment [2], about 4680 nM.

As to `CN1CCC2(CCCN2C[C@H]2O[C@@H](n3ccc4c(NCc5ccc(F)cc5)ncnc43)[C@H](O)[C@@H]2O)CC1` [Compound 203], the IC50 in experiment [1] was 209 nM; in experiment [2], 661 nM.

Turning to `CN1CCC2(CCCN2C[C@H]2O[C@@H](n3ccc4c(NCCc5ccc(F)cc5)ncnc43)[C@H](O)[C@@H]2O)CC1` [Compound 204], the IC50 in experiment [1] was 372 nM; in experiment [2], 1380 nM.

For the compound `CCNc1ncnc2c1ccn2[C@@H]1O[C@H](CN2CCCC23CCN(C)CC3)[C@@H](O)[C@H]1O` [Compound 205], the IC50 is 1620 nM in experiment [1] and 7080 nM in experiment [2].

As for `CN1CCC2(CCC=C2C[C@H]2C[C@@H](n3ccc4c(N)ncnc43)[C@H](O)[C@@H]2O)CC1` [Compound 206], the IC50 in experiment [1] was 5.13 nM; in experiment [2], 64.6 nM.

With `CN1CCC2(CCC/C2=C\[C@H]2C[C@@H](n3ccc4c(N)ncnc43)[C@H](O)[C@@H]2O)CC1` [Compound 207], the results for the IC50 in experiment [1] and in experiment [2] were 5.01 nM and 52.5 nM, respectively.

On to `CN1CCC2(CCCN2C[C@H]2O[C@@H](n3ccc4c(Cl)ncnc43)[C@H](O)[C@@H]2O)CC1` [Compound 208], for which the IC50 in experiment [1] was 75.9 nM; in experiment [2], 490 nM.

Turning to `O[C@@H]1[C@H](O)[C@@H](CN2CCCC23CCNCC3)O[C@H]1n1cnc2c(NC3CC3)ncnc21` [Compound 270], the IC50 in experiment [1] was 4680 nM and 4270 nM and 3470 nM; in experiment [2], over 10000 nM.

For `O=C(NC[C@H](O)CN1CCc2ccccc2C1)c1cc(NC2COC2)ncn1` [EPZ015666], the “potency as PRMT5 inhibitor” value in experiment [3] is reported as “sub-nanomolar potent”. In addition, in experiment [4], the anti-tumour activity entry is recorded as “anti-tumour activity”.
